Reference: PubChem BioAssay AID1918994 (Molecular Pharmacology Branch, DTP, NCI, 2023)
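Further: spheroids exposed to compounds for seven days after three days of growth.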

These compounds were tested on 292921-168-R-J2-PDC complex spheroid growth (assay: Anticancer human tumor 292921-168-R-J2-PDC patient-derived pancreatic carcinoma cell line growth inhibition [AhR]). Conditions: second compound 1 µM; first compound 0.00316 µM; stronger effect = lower value.
Summary of the method: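 Spheroids combined tumor cells with HUVEC endothelial cells and human MSCs as stroma. AhR antagonists were paired with standard or investigational drugs, each dosed in half-log steps down from near clinical Cmax, or from 10 microM where Cmax was unknown.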
In the case of Nc1ncn(C2CC(O)C(CO)O2)c(=O)n1 (configuration not stated) + Cc1ccccc1N=Nc1ccc(NC(=O)c2ccnn2C)c(C)c1, the viability, T/C is reported as 80.1%.

Same assay, conditions: second compound 1 µM; first compound 0.01 µM; stronger effect = lower value
Work on CC[C@@]1(O)C(=O)OCc2c1cc1n(c2=O)Cc2cc3c(CN(C)C)c(O)ccc3nc2-1 + Cc1ccccc1N=Nc1ccc(NC(=O)c2ccnn2C)c(C)c1 yielded a viability, T/C of 62.9%.
Nc1ncn(C2CC(O)C(CO)O2)c(=O)n1 (configuration not stated) + Cc1ccccc1N=Nc1ccc(NC(=O)c2ccnn2C)c(C)c1 showed a viability, T/C of 104%.

Same assay, conditions: second compound 1 µM; first compound 0.0316 µM; stronger effect = lower value
CC(C)c1c(-c2ccccc2)nc2c(C#N)c[nH]n2c1=O + CC(CO)NC(=O)c1cc(-c2ccc(Cl)cc2)nn(-c2cnn(C)c2)c1=O showed a viability, T/C of 109%.
CC[C@@]1(O)C(=O)OCc2c1cc1n(c2=O)Cc2cc3c(CN(C)C)c(O)ccc3nc2-1 + Cc1ccccc1N=Nc1ccc(NC(=O)c2ccnn2C)c(C)c1 was tested, and the viability, T/C was 39.1%.
With COc1cc(C2c3cc4c(cc3C(OC3OC5COC(C)OC5C(O)C3O)C3COC(=O)C23)OCO4)cc(OC)c1O (configuration not stated) + Cc1ccccc1N=Nc1ccc(NC(=O)c2ccnn2C)c(C)c1 the viability, T/C was 75.6%.
For COc1cccc2c1C(=O)c1c(O)c3c(c(O)c1C2=O)CC(O)(C(=O)CO)CC3OC1CC(N)C(O)C(C)O1 (configuration not stated) + Cc1ccccc1N=Nc1ccc(NC(=O)c2ccnn2C)c(C)c1, the viability, T/C was 23.3%.
Work on Nc1ccn(C2OC(CO)C(O)C2(F)F)c(=O)n1 (configuration not stated) + Cc1ccccc1N=Nc1ccc(NC(=O)c2ccnn2C)c(C)c1 yielded a viability, T/C of 8.29%.
Compound Nc1ncn(C2CC(O)C(CO)O2)c(=O)n1 (configuration not stated) + Cc1ccccc1N=Nc1ccc(NC(=O)c2ccnn2C)c(C)c1 has a viability, T/C of 84.2%.

Same assay, conditions: second compound 1 µM; first compound 0.1 µM; stronger effect = lower value
CC(C)c1c(-c2ccccc2)nc2c(C#N)c[nH]n2c1=O + CC(CO)NC(=O)c1cc(-c2ccc(Cl)cc2)nn(-c2cnn(C)c2)c1=O gave a viability, T/C of 102%.
In the case of CC[C@@]1(O)C(=O)OCc2c1cc1n(c2=O)Cc2cc3c(CN(C)C)c(O)ccc3nc2-1 + Cc1ccccc1N=Nc1ccc(NC(=O)c2ccnn2C)c(C)c1, the viability, T/C is reported as 15.6%.
With COc1cc(C2c3cc4c(cc3C(OC3OC5COC(C)OC5C(O)C3O)C3COC(=O)C23)OCO4)cc(OC)c1O (configuration not stated) + Cc1ccccc1N=Nc1ccc(NC(=O)c2ccnn2C)c(C)c1 the viability, T/C was 72.2%.
With COc1cccc2c1C(=O)c1c(O)c3c(c(O)c1C2=O)CC(O)(C(=O)CO)CC3OC1CC(N)C(O)C(C)O1 (configuration not stated) + Cc1ccccc1N=Nc1ccc(NC(=O)c2ccnn2C)c(C)c1 the viability, T/C was 16.1%.
Work on Nc1ccn(C2OC(CO)C(O)C2(F)F)c(=O)n1 (configuration not stated) + Cc1ccccc1N=Nc1ccc(NC(=O)c2ccnn2C)c(C)c1 yielded a viability, T/C of 8.55%.
Work on Nc1ncn(C2CC(O)C(CO)O2)c(=O)n1 (configuration not stated) + Cc1ccccc1N=Nc1ccc(NC(=O)c2ccnn2C)c(C)c1 yielded a viability, T/C of 79.6%.

Same assay, conditions: second compound 1 µM; first compound 0.316 µM; stronger effect = lower value
CC(C)c1c(-c2ccccc2)nc2c(C#N)c[nH]n2c1=O + CC(CO)NC(=O)c1cc(-c2ccc(Cl)cc2)nn(-c2cnn(C)c2)c1=O was tested, and the viability, T/C was 104%.
COc1cc(C2c3cc4c(cc3C(OC3OC5COC(C)OC5C(O)C3O)C3COC(=O)C23)OCO4)cc(OC)c1O (configuration not stated) + Cc1ccccc1N=Nc1ccc(NC(=O)c2ccnn2C)c(C)c1 showed a viability, T/C of 52.3%.
COc1cccc2c1C(=O)c1c(O)c3c(c(O)c1C2=O)CC(O)(C(=O)CO)CC3OC1CC(N)C(O)C(C)O1 (configuration not stated) + Cc1ccccc1N=Nc1ccc(NC(=O)c2ccnn2C)c(C)c1 was tested, and the viability, T/C was 2.12%.
Work on Nc1ccn(C2OC(CO)C(O)C2(F)F)c(=O)n1 (configuration not stated) + Cc1ccccc1N=Nc1ccc(NC(=O)c2ccnn2C)c(C)c1 yielded a viability, T/C of 9.53%.
Nc1ncn(C2CC(O)C(CO)O2)c(=O)n1 (configuration not stated) + Cc1ccccc1N=Nc1ccc(NC(=O)c2ccnn2C)c(C)c1 showed a viability, T/C of 77.2%.

Same assay, conditions: second compound 1 µM; first compound 1 µM; stronger effect = lower value
With CC(C)c1c(-c2ccccc2)nc2c(C#N)c[nH]n2c1=O + CC(CO)NC(=O)c1cc(-c2ccc(Cl)cc2)nn(-c2cnn(C)c2)c1=O the viability, T/C was 97.1%.
COc1cc(C2c3cc4c(cc3C(OC3OC5COC(C)OC5C(O)C3O)C3COC(=O)C23)OCO4)cc(OC)c1O (configuration not stated) + Cc1ccccc1N=Nc1ccc(NC(=O)c2ccnn2C)c(C)c1 was tested, and the viability, T/C was 26.3%.
Compound COc1cccc2c1C(=O)c1c(O)c3c(c(O)c1C2=O)CC(O)(C(=O)CO)CC3OC1CC(N)C(O)C(C)O1 (configuration not stated) + Cc1ccccc1N=Nc1ccc(NC(=O)c2ccnn2C)c(C)c1 has a viability, T/C of 3.61%.
In the case of Nc1ccn(C2OC(CO)C(O)C2(F)F)c(=O)n1 (configuration not stated) + Cc1ccccc1N=Nc1ccc(NC(=O)c2ccnn2C)c(C)c1, the viability, T/C is reported as 8.8%.
Nc1ncn(C2CC(O)C(CO)O2)c(=O)n1 (configuration not stated) + Cc1ccccc1N=Nc1ccc(NC(=O)c2ccnn2C)c(C)c1 gave a viability, T/C of 72.4%.

Same assay, conditions: second compound 1 µM; first compound 3.16 µM; stronger effect = lower value
Compound CC(C)c1c(-c2ccccc2)nc2c(C#N)c[nH]n2c1=O + CC(CO)NC(=O)c1cc(-c2ccc(Cl)cc2)nn(-c2cnn(C)c2)c1=O has a viability, T/C of 94.9%.
With COc1cc(C2c3cc4c(cc3C(OC3OC5COC(C)OC5C(O)C3O)C3COC(=O)C23)OCO4)cc(OC)c1O (configuration not stated) + Cc1ccccc1N=Nc1ccc(NC(=O)c2ccnn2C)c(C)c1 the viability, T/C was 19.2%.
In the case of COc1cccc2c1C(=O)c1c(O)c3c(c(O)c1C2=O)CC(O)(C(=O)CO)CC3OC1CC(N)C(O)C(C)O1 (configuration not stated) + Cc1ccccc1N=Nc1ccc(NC(=O)c2ccnn2C)c(C)c1, the viability, T/C is reported as 0.65%.
Nc1ccn(C2OC(CO)C(O)C2(F)F)c(=O)n1 (configuration not stated) + Cc1ccccc1N=Nc1ccc(NC(=O)c2ccnn2C)c(C)c1 gave a viability, T/C of 11.7%.

Same assay, conditions: second compound 1 µM; first compound 10 µM; stronger effect = lower value
CC(C)c1c(-c2ccccc2)nc2c(C#N)c[nH]n2c1=O + CC(CO)NC(=O)c1cc(-c2ccc(Cl)cc2)nn(-c2cnn(C)c2)c1=O was tested, and the viability, T/C was 99.6%.
Compound COc1cc(C2c3cc4c(cc3C(OC3OC5COC(C)OC5C(O)C3O)C3COC(=O)C23)OCO4)cc(OC)c1O (configuration not stated) + Cc1ccccc1N=Nc1ccc(NC(=O)c2ccnn2C)c(C)c1 has a viability, T/C of 10.9%.
For COc1cccc2c1C(=O)c1c(O)c3c(c(O)c1C2=O)CC(O)(C(=O)CO)CC3OC1CC(N)C(O)C(C)O1 (configuration not stated) + Cc1ccccc1N=Nc1ccc(NC(=O)c2ccnn2C)c(C)c1, the viability, T/C was 5.48%.
For Nc1ccn(C2OC(CO)C(O)C2(F)F)c(=O)n1 (configuration not stated) + Cc1ccccc1N=Nc1ccc(NC(=O)c2ccnn2C)c(C)c1, the viability, T/C was 7.88%.

Same assay, conditions: second compound 3.16 µM; first compound 0.000316 µM; stronger effect = lower value
With CC[C@@]1(O)C(=O)OCc2c1cc1n(c2=O)Cc2cc3c(CN(C)C)c(O)ccc3nc2-1 + Cc1ccccc1N=Nc1ccc(NC(=O)c2ccnn2C)c(C)c1 the viability, T/C was 76%.

Same assay, conditions: second compound 3.16 µM; first compound 0.001 µM; stronger effect = lower value
Work on CC[C@@]1(O)C(=O)OCc2c1cc1n(c2=O)Cc2cc3c(CN(C)C)c(O)ccc3nc2-1 + Cc1ccccc1N=Nc1ccc(NC(=O)c2ccnn2C)c(C)c1 yielded a viability, T/C of 70.4%.

Same assay, conditions: second compound 3.16 µM; first compound 0.00316 µM; stronger effect = lower value
With CC[C@@]1(O)C(=O)OCc2c1cc1n(c2=O)Cc2cc3c(CN(C)C)c(O)ccc3nc2-1 + Cc1ccccc1N=Nc1ccc(NC(=O)c2ccnn2C)c(C)c1 the viability, T/C was 67.1%.
Work on Nc1ncn(C2CC(O)C(CO)O2)c(=O)n1 (configuration not stated) + Cc1ccccc1N=Nc1ccc(NC(=O)c2ccnn2C)c(C)c1 yielded a viability, T/C of 80.2%.

Same assay, conditions: second compound 3.16 µM; first compound 0.01 µM; stronger effect = lower value
CC[C@@]1(O)C(=O)OCc2c1cc1n(c2=O)Cc2cc3c(CN(C)C)c(O)ccc3nc2-1 + Cc1ccccc1N=Nc1ccc(NC(=O)c2ccnn2C)c(C)c1 gave a viability, T/C of 58.2%.
In the case of Nc1ncn(C2CC(O)C(CO)O2)c(=O)n1 (configuration not stated) + Cc1ccccc1N=Nc1ccc(NC(=O)c2ccnn2C)c(C)c1, the viability, T/C is reported as 82.7%.

Same assay, conditions: second compound 3.16 µM; first compound 0.0316 µM; stronger effect = lower value
CC(C)c1c(-c2ccccc2)nc2c(C#N)c[nH]n2c1=O + CC(CO)NC(=O)c1cc(-c2ccc(Cl)cc2)nn(-c2cnn(C)c2)c1=O showed a viability, T/C of 86.8%.
Work on CC[C@@]1(O)C(=O)OCc2c1cc1n(c2=O)Cc2cc3c(CN(C)C)c(O)ccc3nc2-1 + Cc1ccccc1N=Nc1ccc(NC(=O)c2ccnn2C)c(C)c1 yielded a viability, T/C of 32.8%.
Compound COc1cc(C2c3cc4c(cc3C(OC3OC5COC(C)OC5C(O)C3O)C3COC(=O)C23)OCO4)cc(OC)c1O (configuration not stated) + Cc1ccccc1N=Nc1ccc(NC(=O)c2ccnn2C)c(C)c1 has a viability, T/C of 63.4%.
In the case of COc1cccc2c1C(=O)c1c(O)c3c(c(O)c1C2=O)CC(O)(C(=O)CO)CC3OC1CC(N)C(O)C(C)O1 (configuration not stated) + Cc1ccccc1N=Nc1ccc(NC(=O)c2ccnn2C)c(C)c1, the viability, T/C is reported as 19%.
Nc1ccn(C2OC(CO)C(O)C2(F)F)c(=O)n1 (configuration not stated) + Cc1ccccc1N=Nc1ccc(NC(=O)c2ccnn2C)c(C)c1 showed a viability, T/C of 8.95%.
For Nc1ncn(C2CC(O)C(CO)O2)c(=O)n1 (configuration not stated) + Cc1ccccc1N=Nc1ccc(NC(=O)c2ccnn2C)c(C)c1, the viability, T/C was 66.3%.

Same assay, conditions: second compound 3.16 µM; first compound 0.1 µM; stronger effect = lower value
In the case of CC(C)c1c(-c2ccccc2)nc2c(C#N)c[nH]n2c1=O + CC(CO)NC(=O)c1cc(-c2ccc(Cl)cc2)nn(-c2cnn(C)c2)c1=O, the viability, T/C is reported as 91.9%.
CC[C@@]1(O)C(=O)OCc2c1cc1n(c2=O)Cc2cc3c(CN(C)C)c(O)ccc3nc2-1 + Cc1ccccc1N=Nc1ccc(NC(=O)c2ccnn2C)c(C)c1 showed a viability, T/C of 14.1%.
COc1cc(C2c3cc4c(cc3C(OC3OC5COC(C)OC5C(O)C3O)C3COC(=O)C23)OCO4)cc(OC)c1O (configuration not stated) + Cc1ccccc1N=Nc1ccc(NC(=O)c2ccnn2C)c(C)c1 showed a viability, T/C of 60.8%.
With COc1cccc2c1C(=O)c1c(O)c3c(c(O)c1C2=O)CC(O)(C(=O)CO)CC3OC1CC(N)C(O)C(C)O1 (configuration not stated) + Cc1ccccc1N=Nc1ccc(NC(=O)c2ccnn2C)c(C)c1 the viability, T/C was 13.9%.
Compound Nc1ccn(C2OC(CO)C(O)C2(F)F)c(=O)n1 (configuration not stated) + Cc1ccccc1N=Nc1ccc(NC(=O)c2ccnn2C)c(C)c1 has a viability, T/C of 7.07%.
For Nc1ncn(C2CC(O)C(CO)O2)c(=O)n1 (configuration not stated) + Cc1ccccc1N=Nc1ccc(NC(=O)c2ccnn2C)c(C)c1, the viability, T/C was 72.2%.

Same assay, conditions: second compound 3.16 µM; first compound 0.316 µM; stronger effect = lower value
With CC(C)c1c(-c2ccccc2)nc2c(C#N)c[nH]n2c1=O + CC(CO)NC(=O)c1cc(-c2ccc(Cl)cc2)nn(-c2cnn(C)c2)c1=O the viability, T/C was 94.1%.
